Laboratory results: patent US11117892B2, “Pyrrolo-pyridine derivative compound, method for preparing same, and pharmaceutical composition containing same as active ingredient for prevention or treatment of protein kinase-related diseases” (DAEGU-GYEONGBUK MEDICAL INNOVATION FOUNDATION, priority 2017, dated 2021)

How the values were obtained:
Assay in all cases: scanMAX Kinase assay panel
Format in all cases: binding
Settings in all cases: read-out: % control
[1] = molecular target: CAMK1 (Homo sapiens (Human), UniProt Q14012)
Summary of the method: (§1)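 The % control figures are compound readings scaled so that DMSO-treated wells correspond to 100% and the positive control corresponds to 0%. They were obtained on the scanMAX kinase panel.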

[2] = molecular target: PIK3CA(E545K) (Homo sapiens (Human), UniProt P42336, E545K)
Summary of the method: as §1

[3] = molecular target: PAK7 (Homo sapiens (Human), UniProt Q9P286)
Summary of the method: as §1

[4] = molecular target: GCN2(Kin.Dom.2, S808G) (Homo sapiens (Human), UniProt Q9P2K8, S808G)
Summary of the method: as §1

[5] = molecular target: ABL1(T315I)-phosphorylated (Homo sapiens (Human), UniProt P00519, T315I)
Summary of the method: as §1

[6] = molecular target: JAK1(JH2domain-pseudokinase) (Homo sapiens (Human), UniProt P23458)
Summary of the method: as §1

[7] = molecular target: ERK4 (Homo sapiens (Human), UniProt P31152)
Summary of the method: as §1

[8] = molecular target: IKK-epsilon (Homo sapiens (Human), UniProt Q14164)
Summary of the method: as §1

[9] = molecular target: MELK (Homo sapiens (Human), UniProt Q14680)
Summary of the method: as §1

[10] = molecular target: MINK (Homo sapiens (Human), UniProt Q8N4C8)
Summary of the method: as §1

[11] = molecular target: RPS6KA4(Kin.Dom.1-N-terminal) (Homo sapiens (Human), UniProt O75676)
Summary of the method: as §1

[12] = molecular target: AURKB (Homo sapiens (Human), UniProt Q96GD4)
Summary of the method: as §1

[13] = molecular target: EGFR(T790M) (Homo sapiens (Human), UniProt P00533, T790M)
Summary of the method: as §1

[14] = molecular target: AKT1 (Homo sapiens (Human), UniProt P31749)
Summary of the method: as §1

[15] = molecular target: LYN (Homo sapiens (Human), UniProt P07948)
Summary of the method: as §1

[16] = molecular target: NIK (Homo sapiens (Human), UniProt Q99558)
Summary of the method: as §1

[17] = molecular target: PRKCQ (Homo sapiens (Human), UniProt Q04759)
Summary of the method: as §1

[18] = molecular target: BMPR1B (Homo sapiens (Human), UniProt O00238)
Summary of the method: as §1

[19] = molecular target: SNRK (Homo sapiens (Human), UniProt Q9NRH2)
Summary of the method: as §1

[20] = molecular target: MET (Homo sapiens (Human), UniProt P08581)
Summary of the method: as §1

[21] = molecular target: STK39 (Homo sapiens (Human), UniProt Q9UEW8)
Summary of the method: as §1

[22] = molecular target: MEK6 (Homo sapiens (Human), UniProt P52564)
Summary of the method: as §1

[23] = molecular target: CDK7 (Homo sapiens (Human), UniProt P50613)
Summary of the method: as §1

[24] = molecular target: EPHA5 (Homo sapiens (Human), UniProt P54756)
Summary of the method: as §1

[25] = molecular target: SBK1 (Homo sapiens (Human), UniProt Q52WX2)
Summary of the method: as §1

[26] = molecular target: RSK4(Kin.Dom.1-N-terminal) (Homo sapiens (Human), UniProt Q9UK32)
Summary of the method: as §1

[27] = molecular target: PIK3CG (Homo sapiens (Human), UniProt P48736)
Summary of the method: as §1

[28] = molecular target: PAK1 (Homo sapiens (Human), UniProt Q13153)
Summary of the method: as §1

[29] = molecular target: MAP3K2 (Homo sapiens (Human), UniProt Q9Y2U5)
Summary of the method: as §1

[30] = molecular target: PKN1 (Homo sapiens (Human), UniProt Q16512)
Summary of the method: as §1

[31] = molecular target: ABL1-nonphosphorylated (Homo sapiens (Human), UniProt P00519)
Summary of the method: as §1

[32] = molecular target: PHKG1 (Homo sapiens (Human), UniProt Q16816)
Summary of the method: as §1

[33] = molecular target: FGFR3 (Homo sapiens (Human), UniProt P22607)
Summary of the method: as §1

[34] = molecular target: EPHA6 (Homo sapiens (Human), UniProt Q9UF33)
Summary of the method: as §1

[35] = molecular target: RIPK5 (Homo sapiens (Human), UniProt Q6XUX3)
Summary of the method: as §1

[36] = molecular target: PLK4 (Homo sapiens (Human), UniProt O00444)
Summary of the method: as §1

[37] = molecular target: PIK3CA (Homo sapiens (Human), UniProt P42336)
Summary of the method: as §1

[38] = molecular target: RIOK1 (Homo sapiens (Human), UniProt Q9BRS2)
Summary of the method: as §1

[39] = molecular target: ALK (Homo sapiens (Human), UniProt Q9UM73)
Summary of the method: as §1

Sequence of ALK (Q9UM73 19-1620): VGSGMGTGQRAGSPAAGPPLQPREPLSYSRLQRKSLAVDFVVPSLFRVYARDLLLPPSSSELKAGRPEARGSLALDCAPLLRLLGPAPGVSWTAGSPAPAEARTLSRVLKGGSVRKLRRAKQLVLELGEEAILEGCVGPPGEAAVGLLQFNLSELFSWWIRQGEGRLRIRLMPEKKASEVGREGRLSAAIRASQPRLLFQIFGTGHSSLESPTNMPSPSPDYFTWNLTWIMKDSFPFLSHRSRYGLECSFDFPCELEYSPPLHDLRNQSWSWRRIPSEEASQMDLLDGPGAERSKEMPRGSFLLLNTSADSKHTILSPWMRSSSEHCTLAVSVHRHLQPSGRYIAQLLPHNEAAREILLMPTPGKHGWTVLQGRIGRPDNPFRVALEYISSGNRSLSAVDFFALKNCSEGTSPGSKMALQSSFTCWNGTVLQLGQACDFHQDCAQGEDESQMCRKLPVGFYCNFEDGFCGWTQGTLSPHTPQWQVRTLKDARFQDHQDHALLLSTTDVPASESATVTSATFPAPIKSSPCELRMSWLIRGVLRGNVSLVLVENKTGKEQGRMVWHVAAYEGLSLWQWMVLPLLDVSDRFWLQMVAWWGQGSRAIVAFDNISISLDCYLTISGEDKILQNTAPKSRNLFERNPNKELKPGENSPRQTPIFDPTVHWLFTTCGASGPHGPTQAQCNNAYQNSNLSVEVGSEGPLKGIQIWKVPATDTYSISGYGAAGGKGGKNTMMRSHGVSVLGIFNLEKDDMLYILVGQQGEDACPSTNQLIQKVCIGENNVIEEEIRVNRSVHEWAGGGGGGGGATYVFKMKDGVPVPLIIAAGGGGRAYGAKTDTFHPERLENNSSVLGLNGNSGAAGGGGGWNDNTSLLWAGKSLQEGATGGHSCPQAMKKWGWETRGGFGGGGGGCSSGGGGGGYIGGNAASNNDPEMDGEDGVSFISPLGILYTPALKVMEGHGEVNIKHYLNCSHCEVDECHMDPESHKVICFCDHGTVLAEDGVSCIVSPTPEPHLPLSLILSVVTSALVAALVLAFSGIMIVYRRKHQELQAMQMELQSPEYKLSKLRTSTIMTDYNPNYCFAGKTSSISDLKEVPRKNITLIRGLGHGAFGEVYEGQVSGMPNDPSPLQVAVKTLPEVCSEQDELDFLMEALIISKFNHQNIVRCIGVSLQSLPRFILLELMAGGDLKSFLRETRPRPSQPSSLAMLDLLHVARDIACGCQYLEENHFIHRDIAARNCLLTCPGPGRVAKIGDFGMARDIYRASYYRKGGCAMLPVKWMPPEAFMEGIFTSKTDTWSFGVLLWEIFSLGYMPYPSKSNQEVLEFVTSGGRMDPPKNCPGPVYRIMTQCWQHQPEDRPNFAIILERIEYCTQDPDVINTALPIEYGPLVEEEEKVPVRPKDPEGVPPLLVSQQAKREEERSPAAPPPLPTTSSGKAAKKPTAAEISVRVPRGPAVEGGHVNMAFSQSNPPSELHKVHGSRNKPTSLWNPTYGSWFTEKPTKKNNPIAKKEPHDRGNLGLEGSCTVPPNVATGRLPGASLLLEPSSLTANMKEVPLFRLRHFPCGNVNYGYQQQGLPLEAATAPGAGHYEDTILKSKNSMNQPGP
Sequence of CAMK1 (Q14012 whole entry): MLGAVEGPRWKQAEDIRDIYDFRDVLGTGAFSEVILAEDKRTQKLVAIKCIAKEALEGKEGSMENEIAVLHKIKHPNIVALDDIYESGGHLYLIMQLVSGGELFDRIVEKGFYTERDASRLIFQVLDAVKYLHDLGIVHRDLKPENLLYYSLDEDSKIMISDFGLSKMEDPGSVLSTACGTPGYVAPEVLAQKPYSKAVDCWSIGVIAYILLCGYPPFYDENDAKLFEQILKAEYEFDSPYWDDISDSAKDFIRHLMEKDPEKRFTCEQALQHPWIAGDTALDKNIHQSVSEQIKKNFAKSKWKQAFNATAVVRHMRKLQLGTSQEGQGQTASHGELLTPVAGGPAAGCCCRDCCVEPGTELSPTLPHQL
Sequence of RSK4(Kin.Dom.1-N-terminal) (Q9UK32 73-330): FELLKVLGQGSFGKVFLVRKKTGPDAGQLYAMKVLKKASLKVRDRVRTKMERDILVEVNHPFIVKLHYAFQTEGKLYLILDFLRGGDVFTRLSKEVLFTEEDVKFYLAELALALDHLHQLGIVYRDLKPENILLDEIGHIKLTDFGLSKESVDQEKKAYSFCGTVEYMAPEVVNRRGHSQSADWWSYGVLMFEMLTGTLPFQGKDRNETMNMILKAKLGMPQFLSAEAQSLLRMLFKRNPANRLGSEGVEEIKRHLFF
Sequence of LYN (P07948 whole entry): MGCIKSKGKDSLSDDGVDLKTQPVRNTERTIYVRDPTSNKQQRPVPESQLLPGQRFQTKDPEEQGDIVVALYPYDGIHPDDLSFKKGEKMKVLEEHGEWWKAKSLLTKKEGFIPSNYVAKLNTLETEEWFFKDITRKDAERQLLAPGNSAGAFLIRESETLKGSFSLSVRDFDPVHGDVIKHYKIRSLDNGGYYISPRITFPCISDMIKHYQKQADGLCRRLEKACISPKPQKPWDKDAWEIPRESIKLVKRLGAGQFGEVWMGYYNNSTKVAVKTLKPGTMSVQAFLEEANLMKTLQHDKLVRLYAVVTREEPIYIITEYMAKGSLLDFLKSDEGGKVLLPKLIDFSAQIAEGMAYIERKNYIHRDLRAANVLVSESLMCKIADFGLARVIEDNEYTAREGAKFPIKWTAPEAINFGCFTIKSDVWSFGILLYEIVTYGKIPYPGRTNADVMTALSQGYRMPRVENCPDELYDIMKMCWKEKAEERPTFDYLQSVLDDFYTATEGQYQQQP
Sequence of SNRK (Q9NRH2 whole entry): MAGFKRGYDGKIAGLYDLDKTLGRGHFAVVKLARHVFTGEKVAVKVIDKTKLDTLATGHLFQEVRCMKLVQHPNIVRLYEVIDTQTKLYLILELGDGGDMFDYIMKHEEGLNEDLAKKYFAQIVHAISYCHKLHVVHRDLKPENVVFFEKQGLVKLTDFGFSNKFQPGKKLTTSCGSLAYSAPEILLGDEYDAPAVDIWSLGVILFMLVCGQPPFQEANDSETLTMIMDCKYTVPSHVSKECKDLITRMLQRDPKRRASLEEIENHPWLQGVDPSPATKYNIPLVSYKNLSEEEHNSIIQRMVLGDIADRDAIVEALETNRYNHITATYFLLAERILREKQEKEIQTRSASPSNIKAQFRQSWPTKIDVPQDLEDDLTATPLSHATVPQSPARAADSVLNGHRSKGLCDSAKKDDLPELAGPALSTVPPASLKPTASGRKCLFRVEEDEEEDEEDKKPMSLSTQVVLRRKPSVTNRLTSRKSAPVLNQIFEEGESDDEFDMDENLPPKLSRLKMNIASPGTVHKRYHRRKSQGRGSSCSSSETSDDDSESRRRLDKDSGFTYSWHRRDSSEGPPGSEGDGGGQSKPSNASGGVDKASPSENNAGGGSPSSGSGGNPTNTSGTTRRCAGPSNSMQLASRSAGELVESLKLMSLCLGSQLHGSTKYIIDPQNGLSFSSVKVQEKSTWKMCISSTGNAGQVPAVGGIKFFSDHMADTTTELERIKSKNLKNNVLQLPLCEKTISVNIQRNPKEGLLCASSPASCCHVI
Sequence of AKT1 (P31749 whole entry): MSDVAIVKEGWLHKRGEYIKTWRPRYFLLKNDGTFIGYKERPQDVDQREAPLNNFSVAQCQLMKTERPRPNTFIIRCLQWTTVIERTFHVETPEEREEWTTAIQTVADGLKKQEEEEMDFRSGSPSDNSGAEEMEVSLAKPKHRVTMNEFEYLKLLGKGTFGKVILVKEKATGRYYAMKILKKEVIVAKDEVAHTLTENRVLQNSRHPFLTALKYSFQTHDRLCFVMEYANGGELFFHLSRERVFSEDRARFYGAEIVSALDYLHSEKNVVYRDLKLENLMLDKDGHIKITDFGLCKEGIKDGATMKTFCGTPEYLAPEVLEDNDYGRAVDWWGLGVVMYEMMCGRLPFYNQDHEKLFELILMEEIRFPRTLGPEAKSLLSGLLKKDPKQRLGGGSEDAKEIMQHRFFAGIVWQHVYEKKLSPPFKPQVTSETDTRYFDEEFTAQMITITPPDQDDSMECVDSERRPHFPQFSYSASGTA
Sequence of EPHA6 (Q9UF33 23-1036): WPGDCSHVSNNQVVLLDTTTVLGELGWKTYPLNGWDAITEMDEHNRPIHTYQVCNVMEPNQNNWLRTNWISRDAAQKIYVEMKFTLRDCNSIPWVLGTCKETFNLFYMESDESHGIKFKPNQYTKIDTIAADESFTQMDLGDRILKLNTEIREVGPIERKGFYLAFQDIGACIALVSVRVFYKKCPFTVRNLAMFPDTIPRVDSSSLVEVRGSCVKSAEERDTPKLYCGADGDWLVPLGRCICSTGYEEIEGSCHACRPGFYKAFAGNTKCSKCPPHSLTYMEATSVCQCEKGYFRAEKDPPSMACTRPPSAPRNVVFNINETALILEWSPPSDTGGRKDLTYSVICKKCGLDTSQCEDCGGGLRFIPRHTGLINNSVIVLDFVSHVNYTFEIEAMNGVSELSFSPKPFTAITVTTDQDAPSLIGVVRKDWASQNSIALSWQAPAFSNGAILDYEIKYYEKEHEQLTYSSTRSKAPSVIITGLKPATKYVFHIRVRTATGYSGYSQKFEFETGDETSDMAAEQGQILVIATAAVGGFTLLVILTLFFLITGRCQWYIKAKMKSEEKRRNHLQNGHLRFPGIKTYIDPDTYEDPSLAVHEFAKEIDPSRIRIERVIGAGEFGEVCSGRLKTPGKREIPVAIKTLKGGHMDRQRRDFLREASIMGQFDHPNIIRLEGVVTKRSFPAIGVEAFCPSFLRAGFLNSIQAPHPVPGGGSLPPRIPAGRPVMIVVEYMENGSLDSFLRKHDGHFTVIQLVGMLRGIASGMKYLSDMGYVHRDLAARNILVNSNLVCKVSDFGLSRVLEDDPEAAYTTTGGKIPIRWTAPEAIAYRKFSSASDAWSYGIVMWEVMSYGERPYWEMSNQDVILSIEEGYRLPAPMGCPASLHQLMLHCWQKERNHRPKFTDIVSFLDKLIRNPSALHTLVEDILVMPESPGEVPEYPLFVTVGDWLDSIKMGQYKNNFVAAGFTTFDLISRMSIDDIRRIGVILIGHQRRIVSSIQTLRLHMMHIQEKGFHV

SMILES	remaining binding at 1 µM [1]	remaining binding at 1 µM [2]	remaining binding at 1 µM [3]	remaining binding at 1 µM [4]	remaining binding at 1 µM [5]	remaining binding at 1 µM [6]	remaining binding at 1 µM [7]	remaining binding at 1 µM [8]	remaining binding at 1 µM [9]	remaining binding at 1 µM [10]	remaining binding at 1 µM [11]	remaining binding at 1 µM [12]	remaining binding at 1 µM [13]	remaining binding at 1 µM [14]	remaining binding at 1 µM [15]	remaining binding at 1 µM [16]	remaining binding at 1 µM [17]	remaining binding at 1 µM [18]	remaining binding at 1 µM [19]	remaining binding at 1 µM [20]	other results
CCNc1cc(Nc2ccc(C(=O)N3CCC(N4CCOCC4)CC3)cc2OC)nc2[nH]cc(C#N)c12 [Example 18, 4-(ethylamino)-6-((2-methoxy-4-(4-morpholinopiperidine-1-carbonyl)phenyl)amino)-1H-pyrrolo[2,3-b]pyridine-3-carbonitrile]	62%	92%	80%	97%	100%	82%	98%	96%	62%	55%	100%	73%	100%	100%	90%	25%	94%	85%	100%	100%	remaining binding at 1 µM [21]: 26%; remaining binding at 1 µM [22]: 53%; remaining binding at 1 µM [23]: 55%; remaining binding at 1 µM [24]: 99%; remaining binding at 1 µM [25]: 86%; remaining binding at 1 µM [26]: 81%; remaining binding at 1 µM [27]: 100%; remaining binding at 1 µM [28]: 92%; remaining binding at 1 µM [29]: 79%; remaining binding at 1 µM [30]: 85%; remaining binding at 1 µM [31]: 97%; remaining binding at 1 µM [32]: 16%; remaining binding at 1 µM [33]: 93%; remaining binding at 1 µM [34]: 98%; remaining binding at 1 µM [35]: 18%; remaining binding at 1 µM [36]: 40%; remaining binding at 1 µM [37]: 100%; remaining binding at 1 µM [38]: 94%; remaining binding at 1 µM [39]: 2.7%
CCNc1cc(Nc2ccc(C(=O)N3CCC(N4CCOCC4)CC3)cc2OC)nc2[nH]cc(C(F)(F)F)c12 [Example 57, (4-((4-(ethylamino)-3-(trifluoromethyl)-1H-pyrrolo[2,3-b]pyridin-6-yl)amino)-3-methoxyphenyl) (4-morpholinopiperidin-1-yl)methanone]	78%	73%	100%	91%	96%	45%	93%	96%	69%	100%	100%	81%	88%	97%	100%	82%	96%	100%	100%	100%	remaining binding at 1 µM [21]: 43%; remaining binding at 1 µM [22]: 72%; remaining binding at 1 µM [23]: 53%; remaining binding at 1 µM [24]: 85%; remaining binding at 1 µM [25]: 90%; remaining binding at 1 µM [26]: 100%; remaining binding at 1 µM [27]: 87%; remaining binding at 1 µM [28]: 73%; remaining binding at 1 µM [29]: 100%; remaining binding at 1 µM [30]: 71%; remaining binding at 1 µM [31]: 51%; remaining binding at 1 µM [32]: 26%; remaining binding at 1 µM [33]: 94%; remaining binding at 1 µM [34]: 87%; remaining binding at 1 µM [35]: 79%; remaining binding at 1 µM [36]: 47%; remaining binding at 1 µM [37]: 87%; remaining binding at 1 µM [38]: 94%; remaining binding at 1 µM [39]: 2.5%
